From patent US11220509B2, “Substituted imidazo[1,2-c]pyrimidines as PRC2 inhibitors” (Mirati Therapeutics, Inc., priority 2018, dated 2022)
Read-outs that look alike come from different tables or passages of the source.

Legend:
[1] = molecular target: purified human, His-tagged PRC2 complex (Homo sapiens (Human), UniProt O75530); assay: Hot Spot HMT assay: inhibition of PRC2 enzymatic activity (transfer of tritiated methyl from SAM to core histone H3); type: biochemical; details: 10 nM PRC2 complex, 0.05 mg/ml core histone H3, 1 uM 3H-SAM, 1 hr at 30° C.; read-out: IC50, Inhibition of PRC2-mediated Enzymatic Activity
Chain of purified human, His-tagged PRC2 complex (Q15910 whole entry): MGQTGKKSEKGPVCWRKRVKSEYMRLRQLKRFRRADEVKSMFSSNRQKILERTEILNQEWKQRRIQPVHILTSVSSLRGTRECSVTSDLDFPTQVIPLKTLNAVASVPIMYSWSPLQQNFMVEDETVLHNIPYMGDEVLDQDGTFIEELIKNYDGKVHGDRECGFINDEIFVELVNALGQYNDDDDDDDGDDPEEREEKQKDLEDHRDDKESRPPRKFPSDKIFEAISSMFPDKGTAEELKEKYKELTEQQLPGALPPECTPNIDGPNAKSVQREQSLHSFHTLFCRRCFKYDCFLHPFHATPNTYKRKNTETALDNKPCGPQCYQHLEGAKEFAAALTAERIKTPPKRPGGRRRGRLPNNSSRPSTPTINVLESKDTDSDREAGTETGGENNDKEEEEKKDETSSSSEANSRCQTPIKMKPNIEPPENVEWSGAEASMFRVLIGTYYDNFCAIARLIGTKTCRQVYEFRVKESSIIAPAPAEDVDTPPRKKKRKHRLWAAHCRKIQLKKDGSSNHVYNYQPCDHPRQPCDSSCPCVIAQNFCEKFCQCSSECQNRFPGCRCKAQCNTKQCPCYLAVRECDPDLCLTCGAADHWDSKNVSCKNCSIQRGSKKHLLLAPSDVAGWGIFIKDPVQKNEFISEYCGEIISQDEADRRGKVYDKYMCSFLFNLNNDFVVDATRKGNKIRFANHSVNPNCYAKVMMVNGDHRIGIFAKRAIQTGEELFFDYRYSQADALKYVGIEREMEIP
Chain of purified human, His-tagged PRC2 complex (O75530 whole entry): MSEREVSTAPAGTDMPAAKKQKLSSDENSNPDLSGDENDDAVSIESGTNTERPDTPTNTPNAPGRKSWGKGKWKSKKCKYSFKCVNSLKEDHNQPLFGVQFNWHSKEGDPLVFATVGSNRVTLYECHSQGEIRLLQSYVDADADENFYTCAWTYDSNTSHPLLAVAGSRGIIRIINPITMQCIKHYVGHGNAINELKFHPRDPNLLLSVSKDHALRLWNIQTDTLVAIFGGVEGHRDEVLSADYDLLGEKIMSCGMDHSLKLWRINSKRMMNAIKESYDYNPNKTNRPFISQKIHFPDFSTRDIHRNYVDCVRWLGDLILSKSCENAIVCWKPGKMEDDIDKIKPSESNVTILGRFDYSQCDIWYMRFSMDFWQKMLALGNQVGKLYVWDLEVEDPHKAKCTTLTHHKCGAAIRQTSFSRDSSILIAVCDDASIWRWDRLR
Chain of purified human, His-tagged PRC2 complex (Q15022 whole entry partner): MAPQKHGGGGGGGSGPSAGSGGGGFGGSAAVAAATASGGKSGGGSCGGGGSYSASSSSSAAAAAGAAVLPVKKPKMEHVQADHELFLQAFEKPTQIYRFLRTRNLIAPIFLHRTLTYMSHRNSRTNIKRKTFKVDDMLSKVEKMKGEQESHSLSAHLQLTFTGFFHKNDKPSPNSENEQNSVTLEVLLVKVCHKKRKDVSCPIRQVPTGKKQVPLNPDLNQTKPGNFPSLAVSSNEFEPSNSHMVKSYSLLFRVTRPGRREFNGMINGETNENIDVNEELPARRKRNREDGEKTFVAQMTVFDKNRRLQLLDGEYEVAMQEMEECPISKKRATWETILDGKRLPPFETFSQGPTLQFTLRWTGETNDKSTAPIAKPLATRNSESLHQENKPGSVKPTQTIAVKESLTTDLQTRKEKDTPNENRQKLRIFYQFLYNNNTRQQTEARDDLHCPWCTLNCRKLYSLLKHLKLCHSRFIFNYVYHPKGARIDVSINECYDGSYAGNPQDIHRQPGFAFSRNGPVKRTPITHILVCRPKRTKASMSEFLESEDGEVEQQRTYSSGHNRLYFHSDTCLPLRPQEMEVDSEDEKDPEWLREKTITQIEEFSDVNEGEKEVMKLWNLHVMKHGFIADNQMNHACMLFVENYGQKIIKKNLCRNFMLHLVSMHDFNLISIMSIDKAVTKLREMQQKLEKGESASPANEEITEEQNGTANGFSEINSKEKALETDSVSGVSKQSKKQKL
Chain of purified human, His-tagged PRC2 complex (Q6ZN18 whole entry partner): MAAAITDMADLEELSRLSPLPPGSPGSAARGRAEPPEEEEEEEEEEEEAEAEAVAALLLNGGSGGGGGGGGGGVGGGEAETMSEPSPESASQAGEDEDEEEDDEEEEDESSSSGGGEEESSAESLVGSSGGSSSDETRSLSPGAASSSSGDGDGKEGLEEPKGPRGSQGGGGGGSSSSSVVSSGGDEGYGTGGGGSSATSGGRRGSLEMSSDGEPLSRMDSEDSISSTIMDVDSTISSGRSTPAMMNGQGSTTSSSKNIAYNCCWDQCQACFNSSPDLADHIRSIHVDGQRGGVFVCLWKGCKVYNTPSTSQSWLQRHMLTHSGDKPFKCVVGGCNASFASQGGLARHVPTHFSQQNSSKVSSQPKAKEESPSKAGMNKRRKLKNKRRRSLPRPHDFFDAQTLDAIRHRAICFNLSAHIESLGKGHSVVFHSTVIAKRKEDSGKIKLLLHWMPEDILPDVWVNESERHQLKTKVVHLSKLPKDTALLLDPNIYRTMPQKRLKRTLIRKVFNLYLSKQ
Chain of purified human, His-tagged PRC2 complex (Q09028 whole entry partner): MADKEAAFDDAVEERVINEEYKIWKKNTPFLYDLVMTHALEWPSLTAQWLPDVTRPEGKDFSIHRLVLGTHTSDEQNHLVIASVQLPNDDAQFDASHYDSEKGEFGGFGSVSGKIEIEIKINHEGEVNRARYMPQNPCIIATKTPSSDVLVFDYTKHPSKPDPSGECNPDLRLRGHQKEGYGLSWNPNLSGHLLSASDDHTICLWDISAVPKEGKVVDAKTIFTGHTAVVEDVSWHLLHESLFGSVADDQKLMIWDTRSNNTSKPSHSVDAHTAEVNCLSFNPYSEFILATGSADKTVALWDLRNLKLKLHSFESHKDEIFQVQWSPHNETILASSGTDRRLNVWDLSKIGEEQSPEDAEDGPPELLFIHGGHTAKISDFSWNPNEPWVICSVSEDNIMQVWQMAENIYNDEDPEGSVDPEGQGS
Source text: The assay uses purified human, His-tagged PRC2 complex, including N-terminal His-tagged EZH2 enzyme. N-terminal Flag-tagged embryonic ectoderm development protein (EED), N-terminal His-tagged suppressor of zeste 12 (SUZ12), N-terminal His-tagged AEBP2, and N-terminal His-tagged RbAp48. In this assay, the transfer of the tritiated methyl group from radiolabeled S-adenosyl methionine (SAM) to purified core histone protein by EZH2 is quantitated after filtration to determine the activity of the core PRC2 complex in the presence and absence of compound.
The initial starting concentration for the serial dilutions of each compound was 1.0 μM. […] SAH (S-(5-adenosyl)-L-homocysteine) was used as a positive control for assay validation.
An aliquot of each serial dilution of test compound was added to deep 384 well plate using Acoustic Technology instrument (Echo 550, LabCyte) containing reaction buffer (50 mM Tris-HCl (pH 8)), 0.01% Brij35, 1 mM EDTA, 1 mM DTT, 1 mM PMSF and 1% DMSO), 10 nM purified PRC2 complex and 0.05 mg/ml core histone H3 in a 5 μl volume. The reaction was mixed gently and then pre-incubated for 20 min at 30° C. The enzymatic reaction was initiated by adding 1 uM S-Adenosyl-L-[methyl-^3H]methionine and incubated for 1 hr at 30° C. After 1 hr, the reaction product was detected using a filter binding method and the amount of tritiated H3 core histone was quantitated using a scintillation counter. […] Key: A=<100 nM; B=>100 nM-<500 nM; and C=>500 nM.

[2] = test system: Karpas 422 cells expressing mutant EZH2 (Y641N); assay: Karpas 422 cell viability, CTG (Cell Titre Glo) assay; type: cell-based, human; details: Day 4, 7 or 11 measured, time point of the table not stated, read-out: IC50 (nM), Inhibiting Proliferation of Cells Expressing an Activating Mutant Form of EZH2
Description: Karpas 422 cell line is a human B cell non-Hodgkin's lymphoma cell line established from a patient having DLBCL. This EZH2 heterozygotic cell line expresses a mutant form of EZH2 enzyme (Y641N) that increases histone H3 methylation and this mutation has been implicated in the tumorgenesis of lymphomas, such as DLBCL.
Karpas 422 cells (PHE cat no., 06101702) were cultured in RPMI medium supplemented with 20% fetal bovine serum and 1% penicillin/l % streptomycin and plated at a density of 1000 cells/90 μl/well in 96 well white assay plates. A dose response curve for compounds of the present invention was determined by adding a 10 μl aliquot of stock solutions of varying concentrations of compounds to the same medium in each well, over a concentration range of 10 μM using 3-fold dilutions to a final concentration of 1.5 nM. The plates were incubated at 37° C. for predetermined time periods, Day 4, Day 7, or Day 11, and the viability of the cells was measured using a CTG assay kit (Cell Titre Glo; Promega cat. no G7573) on Day 4 and Day 7 in accordance with the manufacturer's instructions.
For the viability assay for the Day 11 plates, the plates were subjected to centrifugation at 1100 rpm for five minutes on Day 7 and the supernatant was removed by aspiration. The cells were resuspended in 90 μl aliquot of the appropriate growth medium lacking the compound followed by addition of 10 μl of a 10× stock of the same compound at the same concentration. The viability of the Day 11 cells was measured using the CTG assay kit described above in accordance with the manufacturer's instructions. The IC50 values for each compound at each predetermined time point were calculated using Graph pad PRISM software and the results are shown in Table 15. A=≤250 nM; B=<250 nM-≤500 nM; and C=>500 nM.

[3] = test system: histone H3 Lys27 trimethylation in Pfeiffer cells expressing mutant EZH2 (A677G); assay: Tri-Methyl Histone H3 (Lys 27) sandwich ELISA in Pfeiffer cells; type: cell-based; details: Homo sapiens, 96 hours incubation, read-out: IC50 (nM), Inhibition of EZH2-mediated Histone H3 Trimethylation
Source text: The Pfeiffer cell line was established from a […] from a patient having metastatic diffuse large B-cell lymphoma (DLBCL). This cell line expresses a mutant form of the EZH2 enzyme (A677G) that results in enhanced EZH2 activity leading to increased methylation of histone H3 Lys27. Increased trimethylation of histone H3 Lys27 is believed to be implicated in tumorgenesis and poor clinical prognosis in lymphomas (McCabe et al., (2012) Nature 492:108-112).
Inhibition of PRC2-mediated histone H3 methylation by compounds of Formula (I) was measured by ELISA using a Tri-Methyl Histone H3 (Lys 27) Sandwich ELISA Kit (Cell Signaling Tech #7866C) in accordance with the manufacturer's instructions. Briefly, Pfeiffer cells were cultured in RPMI medium supplemented with 10% fetal bovine serum and 1% penicillin and 1% streptoncin in 96 well culture plates at 37° C. to a density of 8000 cells/90 μl/well and the cells were harvested. A series of 3-fold serial dilutions of each test compound of Formula (I) were prepared in RPMI medium and added to the cells at final concentrations ranging from 1 μM to 0.15 nM. The plates were incubated at 37° C. for 96 hours.
After incubation, the cells were pelleted by centrifugation in a pre-cooled 4° C. rotor at 1,100 rpm for 10 min and the supernatant was removed by aspiration. The cell pellet was resuspended in 55 μl of Lysis Buffer (0.4M HCl) and incubated on ice with periodic shaking for 30 minutes. The lysed cells were subjected to centrifugation at 4,200 rpm for 10 min at 4° C. and the supernatant containing acid-soluble proteins was collected and the remainder discarded. The acid-soluble proteins were brought to a neutral pH by the addition of 20 μl of Neutralization Buffer (1 M Sodium phosphate, dibasic (pH 12.5), 2.5 mM DTT and 1 mM PMSF) and the neutralized lysates were analyzed by ELISA.
A 65 μl aliquot of each cell lysate was added to a well of a microwell strip, the microwells were sealed using tape and incubated either at 37° C. for two hours or at 4° C. overnight. After incubation, the tape was removed at the microwells were washed four times using 200 μl of 1× Wash Buffer. To each washed microwell, a 100 μl aliquot of an anti-trimethyl histone H3 Lys27 Detection Antibody solution was added and the microwells were incubated at 37° C. for one hour. The Detection Antibody solution was removed by aspiration and the wells were washed four times each using 200 μl of 1× Wash Buffer.
A 100 μl aliquot of an HRP-linked secondary antibody was added to each well, the wells were sealed with tape and incubated at 37° C. for 30 min. The HRP-linked secondary antibody solution was removed by aspiration and the wells were washed four times using 200 μl of 1× Wash Buffer. A 100 μl aliquot of a TMB substrate was added to each well, the wells were sealed with tape and incubated at 37° C. for 10 min or 25° C. for 30 min. The reaction was stopped by the addition of 100 μl aliquot of a STOP solution and the plate was shaken briefly. The degree of histone H3 trimethylation was determined using a spectrophotometric readout by measuring the absorbance at 450 nm and then calculating the amount of trimethylated histone H3. A=≤100 nM; B=>100 nM-≤500 nM; C=>500 nM and N.D.=not determined.

Structure (SMILES) | IC50 [3] | IC50 [2] | IC50 [1] | IC50 ([2]; Homo sapiens, 96 h)
Cc1cc(-c2cnc(NCc3c(F)ccc4occc34)n3cc(C#N)nc23)n(C)n1 [Example 28] |  |  | < 0.1 µM | 250 to 500 nM
Cc1cc(-c2cnc(NCc3c(F)ccc4c3OCO4)n3cc(C#N)nc23)n(C)n1 [Example 228, 8-(1,3-dimethyl-1H-pyrazol-5-yl)-5-(((5-fluorobenzo[d][1,3]dioxol-4-yl)methyl)amino)imidazo[1,2-c]pyrimidine-2-carbonitrile] | 100 to 500 nM |  | 0.1 to 0.5 µM | ≤ 250 nM
Cc1nc(CN(C)C)ccc1-c1cnc(NCc2c(F)ccc3c2CCO3)n2cc(C#N)nc12 [Example 152] |  | ≤ 250 nM |  | 
N#Cc1cn2c(NCc3c(F)ccc4c3CCO4)ncc(-c3cnc(C4CC4)nc3)c2n1 [Example 70] | < 100 nM |  | < 0.1 µM | ≤ 250 nM
Cn1nc(C(=O)O)cc1-c1cnc(NCc2c(F)ccc3c2CCO3)n2cc(C#N)nc12 [Example 157, 5-(2-cyano-5-(((5-fluoro-2,3-dihydrobenzofuran-4-yl)methyl)amino)imidazo[1,2-c]pyrimidin-8-yl)-1-methyl-1H-pyrazole-3-carboxylic acid] | < 100 nM |  |  | ≤ 250 nM

The next lines start with results.

IC50 [3] | IC50 [2] | Structure (SMILES) | IC50 [1] | IC50 ([2]; Homo sapiens, 96 h)
100 to 500 nM |  | Cc1cc(-c2cnc(NCc3c(F)ccc4c3CCO4)n3cc(C#N)nc23)ccn1 [Example 178, 5-(((5-fluoro-2,3-dihydrobenzofuran-4-yl)methyl)amino)-8-(2-methylpyridin-4-yl)imidazo[1,2-c]pyrimidine-2-carbonitrile] | 0.1 to 0.5 µM | ≤ 250 nM
100 to 500 nM |  | [2H]C([2H])(Nc1ncc(-c2ccc(CN(C)C)cc2)c2nc(C#N)cn12)c1c(F)ccc2c1CCO2 [Example 165, 8-(4-((dimethylamino)methyl)phenyl)-5-(((5-fluoro-2,3-dihydrobenzofuran-4-yl)methyl-d2)amino)imidazo[1,2-c]pyrimidine-2-carbonitrile] |  | ≤ 250 nM
 | 250 to 500 nM | CN(C)C(=O)c1cc(-c2cnc(NCc3c(F)ccc4c3CCO4)n3cc(C#N)nc23)n(C)n1 [Example 170, 5-(2-cyano-5-(((5-fluoro-2,3-dihydrobenzofuran-4-yl)methyl)amino)imidazo[1,2-c]pyrimidin-8-yl)-N,N,1-trimethyl-1H-pyrazole-3-carboxamide] |  | 
